Experimental findings from patent US10172914B2, “Combination” (Genesis Pharma SA, priority 2015, dated 2019) are described below.

The test system of assay [1] is Rabbit Model of Acute Myocardial Infarction Injury. As to the kind of experiment: Rabbit ischemia-reperfusion model, exenatide and potassium canrenoate, infarct size (Example 3). The assay is classed as in vivo, New Zealand White rabbits. As to conditions: for IF/AAR: mean ± SEM, exenatide 0.15 μg/Kg and/or P. canrenoate 1 mg/Kg IV bolus 15 min before reperfusion, 30 min ischemia, 180 min reperfusion.

Assay [2] concerns Mouse Model of Acute Myocardial Infarction Injury. In words: Mouse ischemia-reperfusion model, mono-, double and triple therapies, infarct size (Example 5). The assay is classed as in vivo, C57BL/6 mice. Conditions: for IF/AAR: mean ± SEM. The procedure: The test/control articles were given intravenously, under general anaesthesia, in order to mimic the expected route of administration in the clinical setting of acute myocardial infarction and primary percutaneous coronary intervention.
The study followed a predetermined placebo controlled design. […] In all cases, treatments (intravenous bolus administration of saline or test articles or their combinations) were performed 20 min after the onset of ischemia (10 min before the initiation of reperfusion). The experiments were terminated 2 h post-reperfusion (end of study); irreversible myocardial injury (infarct size by histomorphometry) at this time-point was evaluated, and was the primary-end-point of the study.
Mice were anaesthetized by intraperitoneal injection (0.01 ml/Kg) with a combination of ketamine, xylazine and atropine (final doses of ketamine, xylazine and atropine were 100, 20 and 0.6 mg/Kg, respectively). Anaesthetic depth was evaluated by loss of pedal reflex to toe-pinch stimulus and breathing rate. A tracheotomy was performed for artificial respiration at 120-150 breaths/min and positive end-expiratory pressure 2.0 (0.2 ml of total tidal volume; Flexivent rodent ventilator, Scireq, Montreal, ON, Canada). A thoracotomy was then performed between the fourth and fifth ribs and the pericardium carefully retracted to visualize the left anterior descending (LAD), which was ligated using an 8-0 prolene monofilament polypropylene suture placed 1 mm below the tip of the left auricle. […] After the ischemic period, the ligature was released allowing reperfusion of myocardium. Throughout experiments, body temperature was maintained at 37±0.5° C. by way of a heating pad and monitored via a thermocouple inserted rectally.
After reperfusion, animals were sacrificed with an intraperitoneal injection of the ketamine (200 mg/Kg) and xylazine (50 mg/Kg) anesthetic mixture (0.02 ml/Kg) hearts were rapidly excited from mice and directly cannulated and washed with 2.5 ml of saline heparin 1% for blood removal. Five ml of 1% TTC phosphate buffer 37° C. were infused into the coronary circulation; the tissue was incubated for 5 min in the same buffer. Evans Blue 1% diluted in distilled water (2.5 ml) was the infused into the heart. Hearts were kept at −20° C. for 24 hours and then sliced in 1 mm sections parallel to the atrioventricular groove, and then fixed in 4% formalin overnight. […] The areas of myocardial tissue at risk and infarcted were automatically transformed into volumes. Infarct and risk area volumes were expressed in cm^3. For each slide, the AAR was expressed as a percentage of the LV area (AAR/LV), and the IF was expressed as a percentage of the AAR (IF/AAR). In all cases, quantitative histomorphometry was performed by personnel blinded to the treatment assignment/study-design.
All results are presented as mean+SEM. Comparisons of numeric variables among the groups were analyzed using an one-way analysis of variance (ANOVA) model with Bonferroni correction and with Tukey post hoc analysis. […] A calculated P-value of less than 0.05 was considered to be statistically significant.

Where [3] appears, read: exenatide 0.05 μg/Kg, cyclosporine 0.15 mg/Kg, P. canrenoate 1 mg/Kg, alone or in double/triple combination.
Where [4] appears, read: monotherapy doses: exenatide 0.001 μg/Kg, cyclosporine 0.001 mg/Kg, P. canrenoate 0.03 mg/Kg.
The mark [5] stands for this setting: monotherapy doses: exenatide 0.005 μg/Kg, cyclosporine 0.01 mg/Kg, P. canrenoate 0.3 mg/Kg.
The mark [6] stands for this setting: monotherapy doses: exenatide 0.15 μg/Kg, cyclosporine 0.5 mg/Kg, P. canrenoate 10 mg/Kg.

Structures are written as SMILES.

With `C[C@]12CCC(=O)C=C1C=C[C@@H]1[C@@H]2CC[C@@]2(C)[C@H]1CC[C@@]2(O)CCC(=O)[O-].[K+]` [P. CANRENOATE, potassium 3-[(8R,9S,10R,13S,14S,17R)-17-hydroxy-10,13-dimethyl-3-oxo-2,8,9,11,12,14,15,16 octahydro-1H-cyclopenta[a]phenanthren-17-yl]propanoate], the “reduction of the extent of infarct” value in assay [1] (compared with the control group, exenatide 0.15 μg/Kg and/or potassium canrenoate 1 mg/Kg) is recorded as 30.5%. For the same molecule, the “Different (%) in IF/AAR from Control” value is −30.5% in assay [1] (exenatide 0.15 μg/Kg and/or P. canrenoate 1 mg/Kg); −30% in assay [2] (setting [3]); −3% in assay [2] (setting [4]); −7.2% in assay [2] (setting [5]); −58.9% in assay [2] (setting [6]). Further, the IF/AAR in assay [1] is 34.36 ± 2.83%; in assay [1] (listed as potassium canrenoate), 34.36±2.83%; in assay [2] (setting [3]), 33.2 ± 2.4%; in assay [2] (exenatide 0.05 μg/Kg, cyclosporine 0.15 mg/Kg, P. canrenoate 1 mg/Kg, alone or in double/triple combination, listed as potassium canrenoate), 33.2±2.4%; in assay [2] (setting [4]), 46 ± 2.5%; in assay [2] (setting [5]) it was 44 ± 3.2%. Also, the IF/AAR in assay [2] (setting [6]) came out at 19.5 ± 2.5%; in assay [2] (monotherapy doses: exenatide 0.15 μg/Kg, cyclosporine 0.5 mg/Kg, P. canrenoate 10 mg/Kg, listed as potassium canrenoate), 19.5±2.5%. For the same molecule, in assay [2] (compared with the control group, exenatide 0.05 μg/kg, cyclosporine 0.15 mg/kg, potassium canrenoate 1 mg/kg, alone or combined), the “reduction of infarct size / extent of infarct” value is recorded as 30%. Moreover, in assay [2] (compared with the control group, potassium canrenoate 10 mg/kg monotherapy), the “reduction of infarct size” value was determined as 58.9%.
